Biological target: USP1/UAF1 (Homo sapiens (Human), UniProt O94782)
Assay: USP1/UAF1 activity, ubiquitin-rhodamine110-glycine (Ub-Rho) assay
Type: biochemical
Settings: 0.1 nM USP1/UAF1, 100 nM Ub-Rho, 120 minutes; read-out: IC50 (nM), inhibitory effects on USP1/UAF1 activity
Experimental: USP1/UAF1 activity was determined by using ubiquitin-rhodamine110-glycine (Ub-Rho; Boston Biochem) assay. Enzymatic reactions were conducted in an assay buffer (50 mM Tris-HCl, pH 7.8, 0.5 mM EDTA, 100 mM NaCl, 1 mM DTT, 0.01 BSA, and 0.01% Tween-20) that contained 0.1 nM USP1/UAF1. Each individual compound was tested at ten concentrations in the range of 0.0005 to 10 μM. The plates were incubated for 15 min to attain equilibrium, and then the enzymatic reaction was initiated by dispensing 10 μL of Ub-Rho solution (100 nM final concentration). After treating 120 minutes with Ub-Rho solution, the rhodamine fluorescence was acquired using a 480 nm excitation/540 nm emission filter set by using Envision instrument. The inhibition rate of the compound to USP1/UAF1 enzyme activity was calculated according to the following formula.
IC50 value is obtained by fitting the s-shaped dose response curve equation by using XL Fit software. The curve equation is Y=100/(1+10^(log C−log IC50)). C is the compound concentration.

Sequence of USP1/UAF1 (O94782 whole entry): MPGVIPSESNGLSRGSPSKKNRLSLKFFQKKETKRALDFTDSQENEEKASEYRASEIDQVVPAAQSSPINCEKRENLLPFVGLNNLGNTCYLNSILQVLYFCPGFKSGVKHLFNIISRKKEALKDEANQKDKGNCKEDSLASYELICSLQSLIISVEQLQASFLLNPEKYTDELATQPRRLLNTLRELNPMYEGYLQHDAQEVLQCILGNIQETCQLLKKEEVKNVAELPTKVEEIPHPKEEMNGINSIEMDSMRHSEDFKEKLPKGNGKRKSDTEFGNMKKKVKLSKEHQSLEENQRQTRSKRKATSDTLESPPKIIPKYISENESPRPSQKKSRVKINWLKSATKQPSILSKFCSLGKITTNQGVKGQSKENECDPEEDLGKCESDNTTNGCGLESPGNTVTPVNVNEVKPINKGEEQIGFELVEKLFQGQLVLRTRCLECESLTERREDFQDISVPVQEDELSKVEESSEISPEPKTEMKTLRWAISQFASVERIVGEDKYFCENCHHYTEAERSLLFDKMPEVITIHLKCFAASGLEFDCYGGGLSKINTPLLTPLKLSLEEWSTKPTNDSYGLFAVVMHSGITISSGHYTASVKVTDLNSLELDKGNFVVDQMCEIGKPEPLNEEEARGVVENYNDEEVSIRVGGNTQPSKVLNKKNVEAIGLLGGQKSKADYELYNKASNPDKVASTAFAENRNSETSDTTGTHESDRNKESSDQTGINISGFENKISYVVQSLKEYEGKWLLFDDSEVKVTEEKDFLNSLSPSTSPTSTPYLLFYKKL
Sequence of USP1/UAF1 (Q8TAF3 whole entry partner): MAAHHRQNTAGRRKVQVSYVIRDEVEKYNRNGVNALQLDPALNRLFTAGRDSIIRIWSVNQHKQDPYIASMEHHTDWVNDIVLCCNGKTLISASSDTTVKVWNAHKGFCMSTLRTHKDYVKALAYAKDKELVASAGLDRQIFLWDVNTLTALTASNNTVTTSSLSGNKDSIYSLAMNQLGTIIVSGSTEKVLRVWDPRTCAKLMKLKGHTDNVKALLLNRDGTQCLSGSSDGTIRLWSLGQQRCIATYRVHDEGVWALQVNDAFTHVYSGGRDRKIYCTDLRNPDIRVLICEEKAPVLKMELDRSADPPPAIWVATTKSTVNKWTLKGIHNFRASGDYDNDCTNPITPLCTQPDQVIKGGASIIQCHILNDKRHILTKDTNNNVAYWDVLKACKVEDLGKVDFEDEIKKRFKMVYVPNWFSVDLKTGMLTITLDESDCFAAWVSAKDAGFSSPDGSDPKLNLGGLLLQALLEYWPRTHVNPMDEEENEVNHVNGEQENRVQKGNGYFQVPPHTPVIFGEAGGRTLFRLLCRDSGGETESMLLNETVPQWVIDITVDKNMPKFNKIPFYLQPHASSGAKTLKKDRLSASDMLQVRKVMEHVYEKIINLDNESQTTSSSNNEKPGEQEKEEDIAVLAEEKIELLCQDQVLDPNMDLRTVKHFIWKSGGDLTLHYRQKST

Row | IC50 | Compound
1 | 11.2 nM | COc1ncnc(C2CC2)c1-c1nc2c(Cc3ccc(-c4nc(C(F)(F)F)cn4C)cc3)nccn2n1 [Example 18, 2-(4-cyclopropyl-6-methoxypyrimidin-5-yl)-8-(4-(1-methyl-4-(trifluoromethyl)-1H-imidazol-2-yl)benzyl)-[1,2,4]triazolo[1,5-a]pyrazine]
2 | 16.1 nM | COc1ncnc(C2CC2)c1-c1nc2ccnc(Cc3ccc(-c4nc(C(F)(F)F)cn4C)cc3)n2n1 [Example 21, 2-(4-cyclopropyl-6-methoxypyrimidin-5-yl)-5-(4-(1-methyl-4-(trifluoromethyl)-1H-imidazol-2-yl)benzyl)-[1,2,4]triazolo[1,5-c]pyrimidine]
3 | 11.8 nM | COc1ncnc(C2CC2)c1-c1nc2c(Cc3ccc(-c4nc(C(F)(F)F)cn4C4CC4)cc3)cccn2n1 [Example 24, 8-(4-(1-cyclopropyl-4-(trifluoromethyl)-1H-imidazol-2-yl)benzyl)-2-(4-cyclopropyl-6-methoxypyrimidin-5-yl)-[1,2,4]triazolo[1,5-a]pyridine]
4 | 11.6 nM | COc1ncnc(C2CC2)c1-c1nc2c(Cc3ccc(-c4nc(C(F)(F)F)cn4C)c(F)c3)cccn2n1 [Example 25, 2-(4-cyclopropyl-6-methoxypyrimidin-5-yl)-8-(3-fluoro-4-(1-methyl-4-(trifluoromethyl)-1H-imidazol-2-yl)benzyl)-[1,2,4]triazolo[1,5-a]pyridine]
5 | 39.5 nM | CCn1cc(C(F)(F)F)nc1-c1c(F)cc(Cc2cccn3nc(-c4c(OC)ncnc4C4CC4)nc23)cc1OC [Example 26, 2-(4-cyclopropyl-6-methoxypyrimidin-5-yl)-8-(4-(1-ethyl-4-(trifluoromethyl)-1H-imidazol-2-yl)-3-fluoro-5-methoxybenzyl)-[1,2,4]triazolo[1,5-a]pyridine]
6 | 34.6 nM | COc1ncnc(C2CC2)c1-c1nc2c(Cc3ccc(-c4nc(C(F)(F)F)cn4C4CC4)cc3)nccn2n1 [Example 29, 8-(4-(1-cyclopropyl-4-(trifluoromethyl)-1H-imidazol-2-yl)benzyl)-2-(4-cyclopropyl-6-methoxypyrimidin-5-yl)-[1,2,4]triazolo[1,5-a]pyrazine]
7 | 41.4 nM | COc1ncnc(C2CC2)c1-c1nc2c(Cc3ccc(-c4nc(C(F)(F)F)cn4C)c(F)c3)nccn2n1 [Example 30, 2-(4-cyclopropyl-6-methoxypyrimidin-5-yl)-8-(3-fluoro-4-(1-methyl-4-(trifluoromethyl)-1H-imidazol-2-yl)benzyl)-[1,2,4]triazolo[1,5-a]pyrazine]
8 | 57.5 nM | CCn1cc(C(F)(F)F)nc1-c1c(F)cc(Cc2nccn3nc(-c4c(OC)ncnc4C4CC4)nc23)cc1F [Example 31, 2-(4-cyclopropyl-6-methoxypyrimidin-5-yl)-8-(4-(1-ethyl-4-(trifluoromethyl)-1H-imidazol-2-yl)-3,5-difluorobenzyl)-[1,2,4]triazolo[1,5-a]pyrazine]
9 | 111 nM | COc1ncnc(C2CC2)c1-c1nc2c(Cc3ccc(-c4nc(C(F)(F)F)cn4C4CC4)cc3)cncn2n1 [Example 32, 8-(4-(1-cyclopropyl-4-(trifluoromethyl)-1H-imidazol-2-yl)benzyl)-2-(4-cyclopropyl-6-methoxypyrimidin-5-yl)-[1,2,4]triazolo[1,5-c]pyrimidine]
10 | 94.5 nM | COc1ncnc(C2CC2)c1-c1nc2c(Cc3ccc(-c4nc(C(F)(F)F)cn4C)c(F)c3)cncn2n1 [Example 33, 2-(4-cyclopropyl-6-methoxypyrimidin-5-yl)-8-(3-fluoro-4-(1-methyl-4-(trifluoromethyl)-1H-imidazol-2-yl)benzyl)-[1,2,4]triazolo[1,5-c]pyrimidine]
11 | 242 nM | CCn1cc(C(F)(F)F)nc1-c1c(F)cc(Cc2cncn3nc(-c4c(OC)ncnc4C4CC4)nc23)cc1F [Example 34, 2-(4-cyclopropyl-6-methoxypyrimidin-5-yl)-8-(4-(1-ethyl-4-(trifluoromethyl)-1H-imidazol-2-yl)-3,5-difluorobenzyl)-[1,2,4]triazolo[1,5-c]pyrimidine]

Source: patent US20240409538A1, “SUBSTITUTED TRIAZOLOHETEROARYL COMPOUNDS AS USP1 INHIBITORS AND THE USE THEREOF” (IMPACT THERAPEUTICS (SHANGHAI), INC., priority 2021, published 2024)
